Six molecules from article PMC5963671, “Hes1 inhibitor isolated by target protein oriented natural products isolation (TPO-NAPI) of differentiation activators of neural stem cells† †Electronic supplementary information (ESI) available. See DOI: 10.1039/c5sc03540f” (Chemical Science, 2015) can be followed below.

The IC50 is the midpoint of a concentration-inhibition curve. A higher IC50 goes with lower potency.

The target in data set [1] is T1, Hes1 (Rattus norvegicus, UniProt Q04666).
T1 construct: Rat-Hes1 (residues 3-281)
T1 sequence (Q04666 3-281): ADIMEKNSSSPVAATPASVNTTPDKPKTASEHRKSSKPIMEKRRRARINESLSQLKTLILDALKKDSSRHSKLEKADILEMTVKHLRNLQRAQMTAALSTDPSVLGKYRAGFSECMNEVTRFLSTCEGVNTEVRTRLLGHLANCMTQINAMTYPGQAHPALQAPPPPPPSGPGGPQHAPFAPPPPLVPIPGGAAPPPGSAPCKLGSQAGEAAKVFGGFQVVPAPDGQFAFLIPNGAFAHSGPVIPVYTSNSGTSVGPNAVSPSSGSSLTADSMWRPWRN
The data set is described as follows: biochemical. Details: Fluorescence plate assay of Hes1 dimer formation, immobilized Hes1 with Cy3-labeled Hes1. The following applies: Hes1 dimer formation. Here is the method: Nunc Immobilizer™ Amino 96 well plate, white (Nalge Nunc Int.) was used for immobilizing of Hes1. The wells were incubated with 100 μL of Hes1 (10 μg mL^–1 in PBS) for 2 h at 4 °C. After the removal of protein solution, to block remaining activated units on the well, the wells were incubated for 2 h at 4 °C with 100 μL of 10 mM ethanolamine (in 100 mM Na2CO3 buffer, pH 9.6), then washed twice with 200 μL of PBST (PBS containing 0.05% Tween 20). The Hes1 bound microplate wells were incubated with 50 μL of Cy3-labeled-Hes1 in NET-N buffer (ca. 7 mg L^–1, dye/protein = 0.65) for 24 h at 4 °C. After removal of protein solution, each well was washed twice with 200 μL of PBST, then each compound solution (NET-N buffer, 50 μL) was added. After incubation for 1 h at RT in the dark, each well was washed twice with 200 μL of PBST, then dried under reduced pressure 1 h in the dark. The fluorescence intensity was measured in a microplate reader (Fluoroskan Ascent, Thermo). The Cy3 dye was excited at 530 nm and emitted at 590 nm. Usually, the assays were carried out in three individual wells, and the mean value and SD were calculated. Fig. 4 Hes1 dimer formation inhibitory activity. (a) Schematic representation of the assay for inhibitors of Hes1 dimer formation. Rat-Hes1 (residues 3-281) was exposed to Cy3-labeled Hes1. Hes1 dimer was detected through its fluorescence intensity.[40] The assay was performed after the equilibrium of exchange between immobilized Hes1 with Cy3-Hes1 and unlabeled Hes1 which was estimated to be included as unlabeled Hes1 dimers at the immobilizing stage. (b) Hes1 dimer formation inhibition by the isolated compounds 2–4. […] The complex was detected with horseradish peroxidase (HRP) conjugated anti-GST antibody. […] The ratio of dye/protein was calculated from the absorption for Cy3 (ε 150000 M-1 cm-1 at 552 nm). […] Fluorescence plate assay for inhibitors of Hes1 dimer formation Nunc ImmobilizerTM Amino 96 well plate, white (Nalge Nunc Int.) was used for immobilizing of Hes1. […] The fluorescence intensity was measured in a microplate reader (Fluoroskan Ascent, Thermo). […]

Data set [2] deals with T1, Hes1. The data set is described as follows: Hes1 dimer fluorescence plate assay (Cy3-Hes1); binding also shown by GST-Hes1 beads-HPLC with truncated proteins.
Data set [3] deals with T1, Hes1. The data set is described as follows: Hes1 dimer fluorescence plate assay (Cy3-Hes1); binding also shown by GST-Hes1 beads-HPLC.
Data set [4] deals with the molecule itself. Put plainly: fluorescence plate assay (Hes1 dimer plate assay); Hes1 (10 μg/mL in PBS) immobilised on a Nunc Immobilizer Amino 96 well plate; Cy3-labeled Hes1 (ca. 7 mg/L) in NET-N buffer for 24 h at 4 °C; washed with PBST; fluorescence read at 530/590 nm.

On Hes1 [1], `CCCC(=O)/C=C/C1=C(O)C(=O)c2cc(O)c(O)cc2C1=O` [compound 1, lindbladione] yielded an IC50 of 3.7 µM. As for `COc1ccc(-c2cc(=O)c3c(O[C@@H]4O[C@H](CO[C@@H]5OC[C@@H](O)[C@H](O)[C@H]5O)[C@@H](O)[C@H](O)[C@H]4O)cc(OC)cc3o2)cc1` [compound 2, agalloside], the half-maximal inhibitory concentration (IC50) on Hes1 [2] stood at 10.1 µM. On Hes1 [1], `COc1cc(O[C@@H]2O[C@H](CO[C@@H]3OC[C@@H](O)[C@H](O)[C@H]3O)[C@@H](O)[C@H](O)[C@H]2O)c2c(=O)cc(-c3ccc(O)cc3)oc2c1` [compound 3, genkwanin 5-O-β-D-xylosyl-β-D-glucoside] yielded an IC50 of more than 64 µM. With `COc1cc(O[C@@H]2O[C@H](CO[C@@H]3OC[C@@H](O)[C@H](O)[C@H]3O)[C@@H](O)[C@H](O)[C@H]2O)c2c(=O)cc(-c3ccc(OC)c(OC)c3)oc2c1` [compound 4, lethedioside A], the IC50 on Hes1 [3] was 9.5 µM.

Molecule `COc1c(O)cc2oc3cc(O)c(CC=C(C)C)c(O)c3c(=O)c2c1CC=C(C)C` [compound 5, α-Mangostine] registered an IC50 at Hes1 [1] of more than 64 µM.

B1: Rat-Hes1 (residues 3-281) (natural protein, UniProt Q04666 3-281, looked up)
chain: T1 sequence (Q04666 3-281)
modifications: Cy3 label on the copy added in solution (dye/protein = 0.65); the immobilised copy is unlabelled
notes: Hes1 (hairy and Enhancer of split 1), rat, residues 3-281; One copy was coupled to a Nunc Immobilizer Amino plate and the other was Cy3-labelled; also called Cy3-labeled Hes1; Cy3-Hes1
For the molecule B1, the binding result in data set [4] is reported as “binds”.
